{"source": "patent US20200316096A1", "about": "“COMBINATION OF DIET AND DRUG THERAPY FOR TREATING CANCER” (Trustees of Boston College, priority 2019, published 2020)", "key": {"[1]": {"conditions": "shown previously (ref 33); cited from earlier work"}, "[2]": {"experiment": "LC/MS/MS analysis of DON in plasma and VM-M3 brain tumour tissue", "format": "in vivo, mouse (VM/Dk)", "conditions": "for concentration of DON in VM-M3 tumour tissue, mice fed KD-R versus mice fed SD-UR: 60 min after i.p. DON 1.0 mg/kg", "procedure": "FIGS. 4A and 4B. Restricted Ketogenic diet increases DON delivery to the VM-M3 GBM. The content of DON in the VM-M3 brain tumour tissue was quantified using two LC/MS/MS procedures, as described in Methods. The brain tissue was analyzed for DON content 60 minutes after i.p. DON injection. The values in experiment a are presented as mean of two independent samples, while the values in experiment b are presented as the mean±SEM (n=3). The difference between the two groups in experiment b was significant (P<0.01).\nPlasma and brain tissues were prepared for DON analysis one hour after systemic DON injection, as described in Methods below. […] In another independent experiment, using a similar analytical system, the concentration of DON in the VM-M3 tumour tissue was about 3-fold greater in mice fed the KD-R than in mice fed the SD-UR (FIG. 4B). In both methods of measurement, DON delivery to the brain was greater in the mice fed the KD-R than in the mice fed the SD-UR (FIGS. 4A and 4B). DON was detected in plasma 10 min after i.p. injection (data not shown) and was detected in brain tissue 60 min following injection. These findings indicate that the KD-R facilitated delivery of DON to the VM-M3 tumour tissue.\nTwo independent LC-MS instruments and procedures were used to measure the amount of DON in the blood and in the VM-M3 tumour tissues. This was done to validate the accuracy of the procedures. A Triple quad method (Agilent 6460) was used to analyze DON in the first procedure (FIG. 4A). Mice were injected with 1.0 mg/kg of DON at either 10 min or 60 min before collection of the brains and blood. The brains were immediately flash frozen. Blood samples were collected before removal of the brain. 3N HCl+n-butanol (250 μl) was added to 50 μl of plasma, vortexed and then centrifuged at 16,000×g for 5 min to precipitate proteins. A 200 μl aliquot of the supernatant was transferred to a 1.5 ml tube and incubated at 60° C. for 30 min in a shaking water bath to perform the DON derivatization reaction. For the brain tissue, 5 μl of n-butanol containing 3N HCl was added per milligram tissue. The tissue sample was then homogenized with a glass pestle and was then vortexed and centrifuged, and prepared similarly to the plasma samples. Standard solutions were prepared by serial dilution to generate concentrations from 10 nM to 100 μM. DON was added to untreated mouse plasma or brain tissue to generate an internal standard curve. A high-resolution LC-MS QToF method (Agilent 6550) was used to analyze DON in the second procedure (FIG. 4B). Mice were injected with DON as above. Pre-weighed frozen brain tissue was transferred to a tube containing ceramic beads (Omni tubes). 3M HCl+butanol was added at a concentration of 5 μI/mg of tissue. […]"}}, "data": [{"compound": "[N-]=[N+]=CC(=O)CC[C@H](N)C(=O)O", "note": "[DON, 6-diazo-5-oxo-L-norleucine]", "values": [{"measurement": "toxic effects in C57BL/6J mice", "setting": "[1]", "result": "no toxic effects"}, {"measurement": "DON in plasma", "setting": "[2]; 10 min after i.p. injection", "result": "detected"}, {"measurement": "DON in brain tissue", "setting": "[2]; 60 min following injection", "result": "detected"}, {"measurement": "concentration of DON in VM-M3 tumour tissue, mice fed KD-R versus mice fed SD-UR", "setting": "[2]; first procedure (FIG. 4A)", "result": "about 2 fold"}, {"measurement": "concentration of DON in VM-M3 tumour tissue, mice fed KD-R versus mice fed SD-UR", "setting": "[2]; independent experiment (FIG. 4B)", "result": "about 3 fold"}]}]}
